In patent publication US4758558A, “N-(substituted)-[7-(2-cyanoacetamido)cephalosporanic]amide derivatives having antibiotic utility” (priority 1982, dated 1988):

Columns and labels:
Pseudomonas aeruginosa = assay: Effect on intestinal bacteria: number of Pseudomonas aeruginosa in feces; format: in vivo, ICR mice; conditions: 500 mg/kg/day
Procedure: (§1) Effects of the present compound on intestinal bacteria
(§2) Each of the present compounds respectively produced in Examples 1 to 18 was orally administered continuously for 2 days at a daily dose rate of 500 mg/kg body weight to each of five female ICR mice of each group after 6 weeks of their birth.
(§3) Each of the two fecal specimens respectively collected from each mouse before and after one day of the administration was diluted with 100 times by weight of an anaerobic diluent (a phosphoric acid buffer solution) and was ground in a mortar, and 0.1 ml of the thus ground material was smeared on each of the following culture media for the following bacteria, and the thus inoculated culture media were incubated under the following conditions. Thereafter, the number of the following bacteria in each of the thus cultured media was determined.
NAC agar 37° C., one day, […]

Escherichia coli = assay: Effect on intestinal bacteria: number of Escherichia coli in feces; format: in vivo, ICR mice; conditions: 500 mg/kg/day
Procedure: (b) Effect on the intestinal bacterial colonies:
[…] Each portion of the two kinds of the feces was cultured at 25° C. or 37° C. in a variety of culture medium for one to five days to see the state of Escherichia coli, Pseudomonas aeruginosa, a Streptococcus species, a Lactobacillus species, Lactobacillus bifidus and a Bacteroides species in the culture medium.
as §1
Each of the two fecal […] by weight of an anaerobic diluent (a phosphoric acid buffer solution) and was ground in a mortar, and 0.1 ml of the thus ground material was smeared on each of the following culture media for the following bacteria, and the thus inoculated culture media were incubated under the following conditions. Thereafter, the number of the following bacteria in each of the thus cultured media was determined.

[1] = test system: Staphylococcus aureus IAM 1011; assay: Antibacterial activity in vitro (MIC) against Staphylococcus aureus; format: cell-based; conditions: IAM1011, Mueller-Hinton agar, 18 to 24 hours, 37° C., read-out: MIC (minimum growth inhibiting concentration) against Staphylococcus aureus
Procedure: (§4) (c) Anti-bacterial activity (in vitro):
(§5) Minimum concentration of the present compound inhibiting the growth of the following bacteria was determined according to the standard procedures of Japan Society of Chemotherapy:
Staphylococcus aureus IAM 1011
(§6) Determination of the antibacterial activity of the present compound produced in Examples 1 to 18, respectively was carried out according to the standard procedures of Japan Society of Chemotherapy for finding MIC (the minimum concentration of a specimen to inhibit the growth of a species of bacteria).
(§7) A series of diluted solutions of each of the present compound were mixed with 9 times by weight of Mueller-Hinton's culture medium as the culture medium for determining the sensitivity of a bacterial species, and flat agar culture plates were prepared by using the thus obtained mixture.
(§8) Each of the liquids respectively containing one of the bacterial species shown in Table 2 was smeared onto each of the thus prepared flat agar culture plates with a platinum loop, in length of about 2 cm, and the thus treated plates were incubated for 18 to 24 hours at 37° C. Thereafter, by observing the growth state of each bacterial species on the cultured plates, the minimum concentration of each compound completely inhibiting the growth of each bacterial species was found.

[2] = test system: a species of Lactobacillus; assay: Effect on intestinal bacteria: number of a sp. of Lactobacillus in feces; format: in vivo, ICR mice; conditions: 500 mg/kg/day
Procedure: (§9) (b) Effect on the intestinal bacterial colonies: […]
as §1, §2, §3
a species of Lactobacillus
LBS agar 37° C., 5 days, […]

a species of Bacteroides = assay: Effect on intestinal bacteria: number of a sp. of Bacteroides in feces; format: in vivo, ICR mice; conditions: 500 mg/kg/day
Procedure: as §9, §1, §2, §3
a species of Bacteroides
NBGT agar 37° C., 5 days, […]

[3] = test system: Escherichia coli IFO 12734; assay: Antibacterial activity in vitro (MIC) against Escherichia coli; format: cell-based; conditions: IFO12734, Mueller-Hinton agar, 18 to 24 hours, 37° C., read-out: MIC (minimum growth inhibiting concentration) against Escherichia coli
Procedure: as §4, §5
Escherichia coli IFO 12734 and
as §6, §7, §8

Lactobacillus bifidus = assay: Effect on intestinal bacteria: number of Lactobacillus bifidus in feces; format: in vivo, ICR mice; conditions: 500 mg/kg/day
Procedure: as §9, §1, §2, §3
BS agar 37° C., 5 days, […]

[4] = test system: a species of Streptococcus; assay: Effect on intestinal bacteria: number of a sp. of Streptococcus in feces; format: in vivo, ICR mice; conditions: 500 mg/kg/day
Procedure: as §9, §1, §2, §3
a species of Streptococcus
TATAC agar 37° C., one day, […]

[5] = after oral administration for 2 days, female ICR mice, before: 6.4
[6] = after oral administration for 2 days, female ICR mice, before: <3.0
[7] = after oral administration for 2 days, female ICR mice, before: 9.0
[8] = after oral administration for 2 days, female ICR mice, before: 8.2
[9] = after oral administration for 2 days, female ICR mice, before: 8.3
[10] = after oral administration for 2 days, female ICR mice, before: 6.8

Structure (SMILES) | Number of Pseudomonas aeruginosa after the administration (Pseudomonas aeruginosa; mouse, in vivo, po) | Number of Escherichia coli after the administration (Escherichia coli; [5]) | MIC [1] [µg/mL] | Number of a sp. of Lactobacillus after the administration ([2]; mouse, in vivo, po) | Number of a sp. of Bacterioides after the administration (a species of Bacteroides; mouse, in vivo, po) | MIC [3] [µg/mL] | Number of Lactobacillus bifidus after the administration (Lactobacillus bifidus; mouse, in vivo, po) | Number of a sp. of Streptococcus after the administration ([4]; mouse, in vivo, po) | Number of Pseudomonas aeruginosa after the administration (Pseudomonas aeruginosa; [6]) | Number of a sp. of Lactobacillus after the administration [2, 7] | Number of a sp. of Bacterioides after the administration (a species of Bacteroides; [8]) | Number of Lactobacillus bifidus after the administration (Lactobacillus bifidus; [9]) | Number of a sp. of Streptococcus after the administration [4, 10] | Number of Escherichia coli after the administration (Escherichia coli; mouse, in vivo, po)
COC(=O)c1ccc(NC(=O)C2=C(COC(C)=O)CSC3C(NC(=O)CC#N)C(=O)N23)cc1 (centres unmarked) [Example 7, N-(4-carbomethoxyphenyl)-[7-(2-cyanoacetamido)cephalosporanic]amide] | < 3.0 Log10 (number of bacteria/g feces) | 6.5 Log10 (number of bacteria/g feces) | ≥ 100 | 9.0 Log10 (number of bacteria/g feces) | 8.7 Log10 (number of bacteria/g feces) | ≥ 100 | 8.3 Log10 (number of bacteria/g feces) | 6.7 Log10 (number of bacteria/g feces) |  |  |  |  |  | 
Cc1nnc(SCC2=C(C(=O)NCCc3ccc(O)cc3)N3C(=O)C(NC(=O)Cn4cnnn4)C3SC2)s1 (stereo not drawn) [Example 17, N-[beta-(4-hydroxyphenyl)ethyl]-{7-(1-1H-tetrazolylacetamido)-3-[2-(5-methyl-1,3,4-thiadiazolyl)thiomethyl]-3-cephem-4-carboxylic}amide] | < 3.0 Log10 (number of bacteria/g feces) | 6.4 Log10 (number of bacteria/g feces) | ≥ 0.78 | 9.0 Log10 (number of bacteria/g feces) | 8.1 Log10 (number of bacteria/g feces) | ≥ 3.12 | 8.4 Log10 (number of bacteria/g feces) | 6.9 Log10 (number of bacteria/g feces) |  |  |  |  |  | 
Cc1ccc(NC(=O)C2=C(CSc3nnc(C)s3)CSC3C(NC(=O)Cn4cnnn4)C(=O)N23)cc1 (centres unmarked) [Example 16, N-(4-methylphenyl)-{7-(1-1H-tetrazolylacetamido)-3-[2-(5-methyl-1,3,4-thiadiazolyl)thiomethyl]-3-cephem-4-carboxylic}amide] | < 3.0 Log10 (number of bacteria/g feces) | 6.5 Log10 (number of bacteria/g feces) | ≥ 12.5 | 9.2 Log10 (number of bacteria/g feces) | 8.1 Log10 (number of bacteria/g feces) | ≥ 100 | 8.3 Log10 (number of bacteria/g feces) | 6.5 Log10 (number of bacteria/g feces) |  |  |  |  |  | 
COC(=O)c1ccc(NC(=O)C2=C(COC(C)=O)CSC3C(NC(=O)CSc4ccncc4)C(=O)N23)cc1 (stereo not drawn) [Example 1, N-(4-carbomethoxyphenyl)-[7-beta-(4-pyridylthioacetamido)cephalosporanic]amide] | < 3.0 Log10 (number of bacteria/g feces) | 6.9 Log10 (number of bacteria/g feces) | ≥ 12.5 | 9.1 Log10 (number of bacteria/g feces) | 8.8 Log10 (number of bacteria/g feces) | ≥ 100 | 8.4 Log10 (number of bacteria/g feces) | 6.7 Log10 (number of bacteria/g feces) |  |  |  |  |  | 
CC1=C(C(=O)O)N2C(=O)[C@@H](NC(=O)[C@H](N)c3ccccc3)[C@H]2SC1 [CEFALEXIN, 7(D-alpha-amino-alpha-phenylacetamido)-3-methyl-3-cephem-4-carboxylic aci, reference compound] |  | 9.2 Log10 (number of bacteria/g feces) |  |  |  |  |  |  | < 3.0 Log10 (number of bacteria/g feces) | 4.0 Log10 (number of bacteria/g feces) | 8.1 Log10 (number of bacteria/g feces) | 8.0 Log10 (number of bacteria/g feces) | 8.5 Log10 (number of bacteria/g feces) | 
CC(=O)OCC1=C(C(=O)O)N2C(=O)C(NC(=O)CC#N)C2SC1 (centres unmarked) [Compound X, sodium 7(2-cyanoacetamido)cephalosporanate, reference compound] | < 3.0 Log10 (number of bacteria/g feces) | 9.0 Log10 (number of bacteria/g feces) |  | 4.6 Log10 (number of bacteria/g feces) | 8.2 Log10 (number of bacteria/g feces) |  | 6.0 Log10 (number of bacteria/g feces) | 9.1 Log10 (number of bacteria/g feces) |  |  |  |  |  | 
Cc1nnc(SCC2=C(C(=O)O)N3C(=O)[C@@H](NC(=O)Cn4cnnn4)[C@H]3SC2)s1 [SODIUM CEFAZORIN, reference compound] | < 3.0 Log10 (number of bacteria/g feces) |  |  | 4.0 Log10 (number of bacteria/g feces) | 7.3 Log10 (number of bacteria/g feces) |  | 9.1 Log10 (number of bacteria/g feces) | 8.6 Log10 (number of bacteria/g feces) |  |  |  |  |  | 8.9 Log10 (number of bacteria/g feces)
CC(=O)OCC1=C(C(=O)O)N2C(=O)[C@@H](NC(=O)CSc3ccncc3)[C@H]2SC1 [CEPHAPIRIN, 7(4-pyridylthioacetamido)cephalosporanic acid, reference compound] |  | 9.0 Log10 (number of bacteria/g feces) |  |  |  |  |  |  | < 3.0 Log10 (number of bacteria/g feces) | 4.1 Log10 (number of bacteria/g feces) | 8.5 Log10 (number of bacteria/g feces) | 9.1 Log10 (number of bacteria/g feces) | 9.1 Log10 (number of bacteria/g feces) | 
